Tests used:
Assay type in all cases: in vivo
[1] = system: Echinochloa crus-galli (ECHCG); assay: Biological Example 3 glasshouse assay for herbicidal activity, using various adjuvant systems, post-emergence; conditions: 8 g/ha, 14 DAA, adjuvant system per compound
Protocol: (§1) Post-emergence foliar spray application, 200 L/ha, usually one or two replicates for the weeds (depending on application rate), and two replicates for soybean.
(§2) Standard warm conditions (tropical), in glasshouse. Specifically, the glasshouse bay conditions are 24° C./18° C. day/night; 16/8 hours light/dark; 65% humidity.
(§3) The herbicidal application takes place at the following growth stages for plants which include inter alia one or more of the following plants (usually the herbicidal application takes place on at least the following six plants: DIGSA, ELEIN, SETFA, GLXMA Nikko, and GLXMA TMG133, and either BRADC or BRAPP):
Echinochloa crus-galli (ECHCG)—growth stage 12 or 13
(§4) Each test Compound is applied with one of the following adjuvant systems (all percentages are final concentrations in the aqueous spray mixture):
(§5) Adjuvant system 1: 0.5% v/v Adigor™ *, 1.0% v/v AMS (ammonium sulphate) and 12.5% v/v IPA (isopropyl alcohol).
(§6) Adjuvant system 2: 0.5% v/v Adigor™ * and 12.5% v/v IPA (isopropyl alcohol).
Adjuvant system 3: 0.5% v/v Hexamoll™ DINCH **, 1.0% v/v AMS (ammonium sulphate) and 12.5% v/v IPA (isopropyl alcohol). […]
(§7) A visual assessment of the % herbicidal damage is made 7 and 14 Days After herbicide Application (DAA) (or, in a minority of cases, 7 and 15 DAA), and the results are recorded as % visual herbicidal damage where 0%=no damage to plants and 100%=plant totally killed. […]

Setaria faberi (SETFA) [2] = assay: as above; conditions: 8 g/ha, 0.5% v/v Adigor + 1.0% v/v AMS + 12.5% v/v IPA
Protocol: as §1, §2, §3
Setaria faberi (SETFA)—growth stage 12 or 13
as §4, §5, §6
(§8) Adjuvant system 3: 0.5% v/v Hexamoll™ DINCH **, 1.0% v/v AMS (ammonium sulphate) and 12.5% v/v IPA (isopropyl alcohol).
(§9) Seeds of the weed plants, typically including inter alia [either Brachiaria decumbens (BRADC) or Brachiaria platyphylla (BRAPP)], Digitaria sanguinalis (DIGSA), Eleusine indica (ELEIN), Setaria faberi (SETFA) are sown in seed trays (troughs) containing clay loam soil (pH 7.0, 2.2% organic matter, “Trough Mix A”); and soybean seed is sown in pots containing the same soil with 3 soybean seedlings per pot. The plants are sprayed with the test herbicide when they reach the growth stages mentioned above.
(§10) The test herbicidal solutions are prepared by mixing the appropriate aliquots of the test substance(s) and the adjuvant system indicated above *** in deionised water to give the desired treatment concentration. […]
as §7

[3] = system: Digitaria sanguinalis (DIGSA); assay: as above; conditions: 8 g/ha, 0.5% v/v Adigor + 1.0% v/v AMS + 12.5% v/v IPA
Protocol: as §1, §2, §3
Digitaria sanguinalis (DIGSA)—growth stage 12 or 13
as §4, §5, §6, §8
Seeds of the weed plants, typically including inter alia [either Brachiaria decumbens (BRADC) or Brachiaria platyphylla (BRAPP)], Digitaria sanguinalis (DIGSA), Eleusine indica (ELEIN), Setaria faberi (SETFA) are sown in seed trays (troughs) containing clay loam soil (pH 7.0, 2.2% organic matter, “Trough Mix A”); and soybean seed is sown in pots containing the same soil with 3 soybean seedlings per pot. The plants are sprayed with the test herbicide when they reach the growth stages mentioned above. […]
as §7

[4] = system: Brachiaria decumbens (BRADC); assay: as above; conditions: 8 g/ha, 14 DAA, adjuvant system per compound
Protocol: as §1, §2, §3
Brachiaria decumbens (BRADC)— growth stage (GS) 12 or 13 (or GS 12)—or, if BRADC is not used, then Brachiaria platyphylla (BRAPP)—growth stage 12 or 13
as §4, §5
Adjuvant system 2: 0.5% v/v Adigor™ * and 12.5% v/v IPA (isopropyl alcohol). […]
as §7

Setaria faberi (SETFA) [5] = assay: Biological Example 2 comparative herbicidal data, post-emergence glasshouse screen; conditions: 312 h, read-out: Post-emergence herbicidal activities (percentage phytotoxicity) SETFA
Procedure, shortened: (§11)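 Plants grown 8 days in a glasshouse (24/16°C day/night, 14 h light, 65% humidity) were sprayed with compound in acetone/water (50:50) containing 0.5% Tween 20. They were kept under the same conditions and watered twice daily. Phytotoxicity was scored visually after 13 days (0 = no damage, 100 = total damage).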

[6] = system: Echinochloa crus-galli (ECHCG); assay: as above; conditions: 312 h, read-out: Post-emergence herbicidal activities (percentage phytotoxicity) ECHCG
Procedure, shortened: as §11

[7] = system: Alopecurus myosuroides (ALOMY); assay: as above; conditions: 312 h, read-out: Post-emergence herbicidal activities (percentage phytotoxicity) ALOMY
Procedure, shortened: as §11

[8] = system: Abutilon theophasti Medik. (ABUTH); assay: as above; conditions: read-out: Post-emergence herbicidal activities (percentage phytotoxicity) ABUTH
Eleusine indica (ELEIN) = assay: Biological Example 3 glasshouse assay for herbicidal activity, using various adjuvant systems, post-emergence; conditions: 8 g/ha, 15 DAA, 0.5% v/v Adigor + 1.0% v/v AMS + 12.5% v/v IPA
Protocol: as §1, §2, §3
Eleusine indica (ELEIN)—growth stage 12 or 13
as §4, §5, §6, §8, §9, §10, §7

[9] = system: Amarantus retroflexus (AMARE); assay: Biological Example 2 comparative herbicidal data, post-emergence glasshouse screen; conditions: Amaranthus retroflexus, read-out: Post-emergence herbicidal activities (percentage phytotoxicity) AMARE
[10] = system: Abutilon theophasti Medik. (ABUTH); assay: Test 1A glasshouse assay for herbicidal activity, post-emergence; conditions: 312 h, 250 g/ha, evaluated after 13 days, read-out: percentage phytotoxicity ABUTH
Procedure, shortened: (§12)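 Glasshouse spray test with visual phytotoxicity scoring (0–100%) after 13 days. Application timing: 1 day after sowing or after 8 days' cultivation, in 0.5% Tween 20 acetone/water.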

Setaria faberi (SETFA) [11] = assay: as above; conditions: 312 h, 250 g/ha, evaluated after 13 days, read-out: percentage phytotoxicity SETFA
Procedure, shortened: as §12

[12] = system: Amaranthus retroflexus (AMARE); assay: as above; conditions: 312 h, 250 g/ha, evaluated after 13 days, read-out: percentage phytotoxicity AMARE
Procedure, shortened: as §12

[13] = system: Echinochloa crus-galli (ECHCG); assay: as above; conditions: 312 h, 250 g/ha, evaluated after 13 days, read-out: percentage phytotoxicity ECHCG
Procedure, shortened: as §12

[14] = system: Alopecurus myosuroides (ALOMY); assay: as above; conditions: 312 h, 250 g/ha, evaluated after 13 days, read-out: percentage phytotoxicity ALOMY
Procedure, shortened: as §12

[15] = system: Abutilon theophasti Medik. (ABUTH); assay: Test 1A glasshouse assay for herbicidal activity, pre-emergence; conditions: 312 h, 250 g/ha, evaluated after 13 days, read-out: percentage phytotoxicity ABUTH
Procedure, shortened: as §12

Setaria faberi (SETFA) [16] = assay: as above; conditions: 312 h, 250 g/ha, evaluated after 13 days, read-out: percentage phytotoxicity SETFA
Procedure, shortened: as §12

[17] = system: Amaranthus retroflexus (AMARE); assay: as above; conditions: 312 h, 250 g/ha, evaluated after 13 days, read-out: percentage phytotoxicity AMARE
Procedure, shortened: as §12

[18] = system: Echinochloa crus-galli (ECHCG); assay: as above; conditions: 312 h, 250 g/ha, evaluated after 13 days, read-out: percentage phytotoxicity ECHCG
Procedure, shortened: as §12

[19] = system: Alopecurus myosuroides (ALOMY); assay: as above; conditions: 312 h, 250 g/ha, evaluated after 13 days, read-out: percentage phytotoxicity ALOMY
Procedure, shortened: as §12

In the case of `COc1cc(C#CCl)cc(Cl)c1C1C(=O)C2CCC(C2)C1=O` (stereo not drawn) [Compound A-25, 3-[2-Chloro-4-(2-chloroethynyl)-6-methoxy-phenyl]bicyclo[3.2.1]octane-2,4-dione], the “percentage control of Echinochloa crus-galli (ECHCG)” value [1] is reported as 45%, the “percentage control of Setaria faberi (SETFA)” value (Setaria faberi (SETFA) [2]; 14 DAA) is reported as 40% and the “percentage control of Digitaria sanguinalis (DIGSA)” value ([3]; 14 DAA) is reported as 60%. The “percentage control of Brachiaria decumbens (BRADC)” value [4] was 15%.
`C#Cc1cc(Cl)c(C2C(=O)CC3(CCOCC3)CC2=O)c(OC)c1` [Compound B-1, 9-(2-Chloro-4-ethynyl-6-methoxy-phenyl)-3-oxaspiro[5.5]undecane-8,10-dione] gave a pest or weed control at 8 g/ha (Setaria faberi (SETFA) [5]; 8 g/ha application rate) of 30%, a pest or weed control at 30 g/ha (Setaria faberi (SETFA) [5]; 30 g/ha application rate) of 70% and a pest or weed control at 8 g/ha ([6]; 8 g/ha application rate) of 20%. It also gave a pest or weed control at 30 g/ha ([6]; 30 g/ha application rate) of 80%, a pest or weed control at 8 g/ha ([7]; 8 g/ha application rate) of 10% and a pest or weed control at 30 g/ha ([7]; 30 g/ha application rate) of 70%. For the same compound, the pest or weed control at 8 g/ha ([8]; 8 g/ha application rate) was 0%, the pest or weed control at 30 g/ha ([8]; 30 g/ha application rate) was 10% and the “percentage control of Eleusine indica (ELEIN)” value (Eleusine indica (ELEIN)) was 20%. The pest or weed control at 8 g/ha ([9]; 8 g/ha application rate) was 0%, the pest or weed control at 30 g/ha ([9]; 30 g/ha application rate) was 0% and the “percentage control of Setaria faberi (SETFA)” value (Setaria faberi (SETFA) [2]; 15 DAA) was 50%. For the same compound, the “percentage control of Digitaria sanguinalis (DIGSA)” value ([3]; 15 DAA) was 85%, the pest or weed control at 250 g/ha [10] was 60% and the pest or weed control at 250 g/ha (Setaria faberi (SETFA) [11]) was 100%. For the same compound, the pest or weed control at 250 g/ha [12] was 0%, the pest or weed control at 250 g/ha [13] was 100% and the pest or weed control at 250 g/ha [14] was 100%. It also gave a pest or weed control at 250 g/ha [15] of 0%, a pest or weed control at 250 g/ha (Setaria faberi (SETFA) [16]) of 80% and a pest or weed control at 250 g/ha [17] of 20%. For the same compound, the pest or weed control at 250 g/ha [18] was 100% and the pest or weed control at 250 g/ha [19] was 90%.
